Experimental data: patent US3978045A, “N^2 -dansyl-L-arginine derivatives, and the pharmaceutically acceptable acid addition salts thereof” (priority 1973, dated 1976)

Key:
[1] = Acute toxicity (LD50) by oral administration in mice; conditions: mouse, in vivo, per kilogram of body weight
thrombin = molecular target: T1, thrombin (Bos taurus, UniProt P00735); assay: Fibrinogen coagulation time (thrombin-induced clotting of fibrinogen); type: biochemical; conditions: bovine fibrinogen, borate saline buffer pH 7.4, thrombin 0.1 ml of 5 units/ml, 25°C; control coagulation time 50-55 seconds; read-out: Concentration required to prolong the coagulation time by a factor of 2
T1 construct: mature alpha-thrombin (light plus heavy chain) cut from prothrombin
Protocol: The antithrombotic activities of the N^2 -dansyl-L-arginine derivatives of this invention were compared with those of a known antithrombotic agent, (N^2 -(p-tolylsulfonyl)-L-arginine methyl ester). by determining the fibrinogen coagulation time. The measurement of the fibrinogen coagulation time was conducted as follows:
Immediately after mixing, the reaction mixture was transferred from the ice bath to a bath thermostated at 25°C. Coagulation times were taken as the period between the time of transference to the 25°C bath and the time of the first appearance of fibrin threads.
The term "concentration required to prolong the coagulation time by a factor of two" is the concentration of an active ingredient required to prolong the normal coagulation time 50-55 seconds to 100-110 seconds.

Row | IC (2-fold clotting time) (thrombin) [µM] | SMILES | LD50 [1] [mg/kg]
1 | 1.5 | CN(C)c1cccc2c(S(=O)(=O)N[C@@H](CCCNC(=N)N)C(=O)N3CCOCC3)cccc12 [Sample 67, 4-(N^2-dansyl-L-arginyl)morpholine] | 
2 | 20 | CC1CN(C(=O)[C@H](CCCNC(=N)N)NS(=O)(=O)c2cccc3c(N(C)C)cccc23)CC(C)O1 (stereo partly shown) [Sample 68] | 
3 | 2 | CN1CCN(C(=O)[C@H](CCCNC(=N)N)NS(=O)(=O)c2cccc3c(N(C)C)cccc23)CC1 [Sample 71, 4-methyl-1-(N^2-dansyl-L-arginyl)piperazine] | 
4 | 6.5 | CN(C)c1cccc2c(S(=O)(=O)N[C@@H](CCCNC(=N)N)C(=O)N3CCCc4ccccc43)cccc12 [Sample 72, N^2-dansyl-N-(1,2,3,4-tetrahydro-1-quinolyl)argininamide] | 

The next lines start with the compound.

Row | SMILES | IC (2-fold clotting time) (thrombin) [µM] | LD50 [1] [mg/kg]
5 | CN(C)c1cccc2c(S(=O)(=O)N[C@@H](CCCNC(=N)N)C(=O)N3Cc4ccccc4C3)cccc12 [2-(N^2-dansyl-L-arginyl)isoindoline] |  | 1360
6 | CCC1CCN(C(=O)[C@H](CCCNC(=N)N)NS(=O)(=O)c2cccc3c(N(C)C)cccc23)CC1 [4-ethyl-1-(N^2-dansyl-L-arginyl)piperidine] |  | 1380
7 | CC1CCN(C(=O)[C@H](CCCNC(=N)N)NS(=O)(=O)c2cccc3c(N(C)C)cccc23)CC1 [4-methyl-1-(N^2-dansyl-L-arginyl)piperidine] |  | 1310
8 | CCCCOC(=O)[C@H](CCCNC(=N)N)NS(=O)(=O)c1cccc2c(N(C)C)cccc12 [N^2 -dansyl-L-arginine n-butyl ester] |  | > 6000
9 | CN(C)c1cccc2c(S(=O)(=O)N[C@@H](CCCNC(=N)N)C(=O)N3CCCCCCCC3)cccc12 [Sample 66, N^2 -dansyl-N,N-octamethylene-L-argininamide] | 2 | 
10 | CN(C)c1cccc2c(S(=O)(=O)N[C@@H](CCCNC(=N)N)C(=O)N3Cc4ccccc4C3)cccc12 [Sample 70, 2-(N^2-dansyl-L-arginyl)isoindoline] | 0.67 | 
